Experimental data taken from patent US8426437B2, “Pyrroloquinoline derivatives and their use as protein kinases inhibitors” (Pierre Fabre Medicament, priority 2005, dated 2013).
One block for each molecule: values may come before it.

Experiments:
c-RAF (h) = biological target: T1, c-RAF (h) (Homo sapiens, UniProt P04049, Y340D/Y341D); assay: Upstate kinase panel: c-RAF; assay type: biochemical
T1 construct: purchased Upstate
Procedure: (§1) These kinases are produced by Upstate and screened according to the respective protocols indicated by the supplier (http://www.upstate.com/features/kp_protocols.asp). Examples 1, 12, 166 and 238 were tested at a concentration of 20 μM, 10 μM, 1 μM and 1 μM respectively in the presence of 10 μM of ATP for examples 1 and 12 and at the concentrations of ATP shown in parentheses for examples 166 and 238. The results shown in Table VII correspond to percentage inhibition of the kinase tested in the presence of the compound, relative to a control effected without the compound.

CDK2/cyclinE (h) = biological target: T2, CDK2/cyclinE (h) (Homo sapiens, UniProt P24941); assay: Upstate kinase panel: CDK2/cyclinE; assay type: biochemical; settings: 10 μM ATP
T2 construct: purchased Upstate
Procedure: as §1

IGF-1R (h) = biological target: T3, IGF-1R (h) (Homo sapiens, UniProt P08069); assay: Upstate kinase panel: IGF-1R; assay type: biochemical; settings: 10 μM ATP
T3 construct: purchased Upstate
Procedure: as §1

Flt3 (h) = biological target: T4, Flt3 (h) (Homo sapiens, UniProt P36888); assay: Upstate kinase panel: Flt3; assay type: biochemical
T4 construct: purchased Upstate
T4 sequence (P36888 27-993): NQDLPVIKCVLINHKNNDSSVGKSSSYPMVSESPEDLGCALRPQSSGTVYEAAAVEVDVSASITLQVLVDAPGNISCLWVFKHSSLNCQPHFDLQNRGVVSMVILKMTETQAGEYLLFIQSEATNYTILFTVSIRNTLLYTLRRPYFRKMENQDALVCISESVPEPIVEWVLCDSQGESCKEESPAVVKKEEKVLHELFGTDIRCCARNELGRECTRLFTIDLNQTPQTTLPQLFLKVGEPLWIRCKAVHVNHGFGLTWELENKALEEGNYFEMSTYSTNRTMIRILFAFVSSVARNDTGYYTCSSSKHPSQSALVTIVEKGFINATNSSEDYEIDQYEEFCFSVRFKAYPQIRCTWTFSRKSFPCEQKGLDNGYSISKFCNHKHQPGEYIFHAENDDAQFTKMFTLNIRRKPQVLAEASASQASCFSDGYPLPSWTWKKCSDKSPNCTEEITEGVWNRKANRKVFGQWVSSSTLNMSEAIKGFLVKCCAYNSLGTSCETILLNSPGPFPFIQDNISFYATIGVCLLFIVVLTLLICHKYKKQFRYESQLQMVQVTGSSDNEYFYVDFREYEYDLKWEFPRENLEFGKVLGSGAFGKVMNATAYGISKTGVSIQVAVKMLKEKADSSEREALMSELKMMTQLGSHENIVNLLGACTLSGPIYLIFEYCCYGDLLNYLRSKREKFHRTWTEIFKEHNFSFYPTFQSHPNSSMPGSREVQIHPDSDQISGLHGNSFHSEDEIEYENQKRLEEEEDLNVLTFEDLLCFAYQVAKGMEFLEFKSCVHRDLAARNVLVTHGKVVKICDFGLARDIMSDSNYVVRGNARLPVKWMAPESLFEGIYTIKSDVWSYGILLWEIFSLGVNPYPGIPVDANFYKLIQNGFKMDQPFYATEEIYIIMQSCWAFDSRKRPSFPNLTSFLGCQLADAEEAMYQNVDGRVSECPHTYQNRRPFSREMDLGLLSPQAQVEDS
Procedure: as §1

cKit (h) = biological target: T5, cKit (h) (Homo sapiens, UniProt P10721); assay: Upstate kinase panel: cKit; assay type: biochemical
T5 construct: purchased Upstate
T5 sequence (P10721 26-976): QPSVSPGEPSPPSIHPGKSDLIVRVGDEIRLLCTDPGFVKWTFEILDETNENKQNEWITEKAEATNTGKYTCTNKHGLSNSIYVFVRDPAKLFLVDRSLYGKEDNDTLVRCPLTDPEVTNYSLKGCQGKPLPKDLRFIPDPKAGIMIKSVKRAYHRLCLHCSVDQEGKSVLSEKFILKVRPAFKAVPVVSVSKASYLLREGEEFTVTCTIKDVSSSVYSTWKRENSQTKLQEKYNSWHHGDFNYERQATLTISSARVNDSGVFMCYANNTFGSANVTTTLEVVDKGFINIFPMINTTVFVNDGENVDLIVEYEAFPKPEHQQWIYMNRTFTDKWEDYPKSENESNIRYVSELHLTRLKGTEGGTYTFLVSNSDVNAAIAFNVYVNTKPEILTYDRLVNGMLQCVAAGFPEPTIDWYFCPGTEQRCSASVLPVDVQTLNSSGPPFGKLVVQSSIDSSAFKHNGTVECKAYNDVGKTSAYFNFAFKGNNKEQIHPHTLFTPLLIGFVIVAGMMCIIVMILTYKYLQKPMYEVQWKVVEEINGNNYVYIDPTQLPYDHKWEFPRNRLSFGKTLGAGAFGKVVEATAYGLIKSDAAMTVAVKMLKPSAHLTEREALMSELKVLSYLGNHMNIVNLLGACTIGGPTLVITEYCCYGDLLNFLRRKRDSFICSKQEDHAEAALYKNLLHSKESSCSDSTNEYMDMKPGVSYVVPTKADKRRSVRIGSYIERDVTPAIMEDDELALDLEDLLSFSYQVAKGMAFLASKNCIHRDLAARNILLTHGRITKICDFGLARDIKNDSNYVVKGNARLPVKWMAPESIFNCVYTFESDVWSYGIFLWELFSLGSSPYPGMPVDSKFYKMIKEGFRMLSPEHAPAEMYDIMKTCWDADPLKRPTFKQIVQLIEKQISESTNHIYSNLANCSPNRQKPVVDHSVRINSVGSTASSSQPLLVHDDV
Procedure: as §1

RET = biological target: T6, RET (Homo sapiens, UniProt P07949); assay: Inhibition of RET kinase activity, recombinant RET method (Kinase-Glo); assay type: biochemical; settings: RET 2 μg/ml, poly-EY4 substrate, 20 μM ATP, two hours at 30° C.
T6 construct: purchased Upstate 14-570MG
T6 sequence (P07949 29-1114): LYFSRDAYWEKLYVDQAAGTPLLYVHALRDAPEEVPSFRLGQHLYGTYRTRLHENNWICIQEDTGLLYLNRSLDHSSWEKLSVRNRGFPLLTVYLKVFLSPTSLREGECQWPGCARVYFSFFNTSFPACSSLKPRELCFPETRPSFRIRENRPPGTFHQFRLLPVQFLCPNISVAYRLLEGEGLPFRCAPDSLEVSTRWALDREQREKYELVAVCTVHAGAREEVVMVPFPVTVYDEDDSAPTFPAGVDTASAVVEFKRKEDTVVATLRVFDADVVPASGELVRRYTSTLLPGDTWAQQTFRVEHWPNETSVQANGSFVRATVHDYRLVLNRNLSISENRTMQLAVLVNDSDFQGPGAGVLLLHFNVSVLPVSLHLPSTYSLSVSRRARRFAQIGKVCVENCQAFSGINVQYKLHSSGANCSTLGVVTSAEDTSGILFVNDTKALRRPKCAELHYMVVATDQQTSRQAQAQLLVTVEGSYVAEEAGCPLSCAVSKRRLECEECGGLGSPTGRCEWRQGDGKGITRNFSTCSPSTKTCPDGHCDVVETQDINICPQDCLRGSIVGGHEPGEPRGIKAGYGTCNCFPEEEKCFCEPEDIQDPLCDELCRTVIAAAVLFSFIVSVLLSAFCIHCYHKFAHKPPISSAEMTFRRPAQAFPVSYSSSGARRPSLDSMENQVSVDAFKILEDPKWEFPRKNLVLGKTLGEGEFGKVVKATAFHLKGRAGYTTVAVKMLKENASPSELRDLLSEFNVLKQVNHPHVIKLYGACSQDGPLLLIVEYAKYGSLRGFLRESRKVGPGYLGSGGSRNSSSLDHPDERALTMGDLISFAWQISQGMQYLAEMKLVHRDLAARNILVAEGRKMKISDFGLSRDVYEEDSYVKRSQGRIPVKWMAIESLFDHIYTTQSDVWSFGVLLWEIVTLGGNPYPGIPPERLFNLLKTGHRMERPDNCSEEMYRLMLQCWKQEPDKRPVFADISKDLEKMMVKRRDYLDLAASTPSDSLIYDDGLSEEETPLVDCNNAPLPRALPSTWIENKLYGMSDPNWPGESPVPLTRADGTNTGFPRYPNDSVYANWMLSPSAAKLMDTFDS
Procedure, shortened: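 Recombinant RET at 2 μg/ml in 20 mM MOPS/NaOH pH 7.0, 1 mM EDTA, 5% glycerol, 0.01% Brij35, 0.1% 2-mercaptoethanol, 1 mg/ml BSA; compounds 10 nM–30 μM final.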

ROCK-II (h) = biological target: T7, ROCK-II (h) (Homo sapiens, UniProt O75116); assay: Upstate kinase panel: ROCK-II; assay type: biochemical
T7 construct: purchased Upstate
T7 sequence (O75116 whole entry): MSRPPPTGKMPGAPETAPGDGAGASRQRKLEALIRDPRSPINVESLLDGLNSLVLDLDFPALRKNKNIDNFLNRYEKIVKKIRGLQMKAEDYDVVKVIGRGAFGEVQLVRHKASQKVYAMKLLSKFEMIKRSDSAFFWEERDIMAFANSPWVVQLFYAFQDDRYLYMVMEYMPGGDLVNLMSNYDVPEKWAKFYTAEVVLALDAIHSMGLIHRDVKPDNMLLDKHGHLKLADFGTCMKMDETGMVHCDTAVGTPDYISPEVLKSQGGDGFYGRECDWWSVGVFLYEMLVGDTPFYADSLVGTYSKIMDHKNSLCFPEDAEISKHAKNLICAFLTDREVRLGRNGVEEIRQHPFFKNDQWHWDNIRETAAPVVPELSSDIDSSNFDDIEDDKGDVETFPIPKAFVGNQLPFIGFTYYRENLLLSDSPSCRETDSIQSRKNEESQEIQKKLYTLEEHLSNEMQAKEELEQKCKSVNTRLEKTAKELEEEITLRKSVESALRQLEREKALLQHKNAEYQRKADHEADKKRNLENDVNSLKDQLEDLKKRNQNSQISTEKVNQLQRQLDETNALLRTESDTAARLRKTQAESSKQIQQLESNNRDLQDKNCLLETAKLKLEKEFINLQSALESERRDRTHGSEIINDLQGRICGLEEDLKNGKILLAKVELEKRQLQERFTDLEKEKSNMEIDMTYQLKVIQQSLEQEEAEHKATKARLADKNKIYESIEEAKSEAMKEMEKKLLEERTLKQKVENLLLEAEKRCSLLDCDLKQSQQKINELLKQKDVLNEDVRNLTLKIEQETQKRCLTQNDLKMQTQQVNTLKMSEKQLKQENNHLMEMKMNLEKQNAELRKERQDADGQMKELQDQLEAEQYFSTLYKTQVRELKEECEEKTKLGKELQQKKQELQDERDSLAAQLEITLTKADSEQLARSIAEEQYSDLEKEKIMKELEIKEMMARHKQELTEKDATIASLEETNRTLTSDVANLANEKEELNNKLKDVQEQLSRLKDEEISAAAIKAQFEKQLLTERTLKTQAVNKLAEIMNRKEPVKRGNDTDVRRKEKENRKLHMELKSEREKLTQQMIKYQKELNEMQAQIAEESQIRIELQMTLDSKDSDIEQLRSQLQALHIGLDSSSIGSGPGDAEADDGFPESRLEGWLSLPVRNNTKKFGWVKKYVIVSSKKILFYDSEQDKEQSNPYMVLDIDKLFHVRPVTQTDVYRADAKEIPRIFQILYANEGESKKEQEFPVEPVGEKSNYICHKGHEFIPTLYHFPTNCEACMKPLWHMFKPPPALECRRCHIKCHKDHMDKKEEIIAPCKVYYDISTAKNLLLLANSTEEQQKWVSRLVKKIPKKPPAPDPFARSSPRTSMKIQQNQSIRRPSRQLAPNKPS
Procedure: as §1

GSK3B (h) = biological target: T8, GSK3B (h) (Homo sapiens, UniProt P49841); assay: Upstate kinase panel: GSK3B; assay type: biochemical
T8 construct: purchased Upstate
T8 sequence (P49841 whole entry): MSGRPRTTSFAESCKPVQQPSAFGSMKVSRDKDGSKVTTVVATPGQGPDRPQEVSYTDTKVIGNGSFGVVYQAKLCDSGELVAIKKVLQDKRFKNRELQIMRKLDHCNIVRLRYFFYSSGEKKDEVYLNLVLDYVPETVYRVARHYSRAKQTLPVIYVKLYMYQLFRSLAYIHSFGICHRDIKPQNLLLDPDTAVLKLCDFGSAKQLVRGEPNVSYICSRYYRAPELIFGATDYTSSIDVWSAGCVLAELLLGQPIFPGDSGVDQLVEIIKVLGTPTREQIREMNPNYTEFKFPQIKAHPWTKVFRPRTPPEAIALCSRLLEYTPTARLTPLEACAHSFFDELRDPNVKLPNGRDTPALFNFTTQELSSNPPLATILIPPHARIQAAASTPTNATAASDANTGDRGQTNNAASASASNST
Procedure: as §1

Hck (h) = biological target: T9, Hck (h) (Homo sapiens, UniProt P08631); assay: Upstate kinase panel: Hck; assay type: biochemical; settings: compound 10 μM, 10 μM ATP, read-out: % inhibition at 10 μMol
T9 construct: purchased Upstate
Procedure: as §1

FGFR2 (h) = biological target: T10, FGFR2 (h) (Homo sapiens, UniProt P21802); assay: Upstate kinase panel: FGFR2; assay type: biochemical; settings: 10 μM ATP
T10 construct: purchased Upstate
T10 sequence (P21802 22-821): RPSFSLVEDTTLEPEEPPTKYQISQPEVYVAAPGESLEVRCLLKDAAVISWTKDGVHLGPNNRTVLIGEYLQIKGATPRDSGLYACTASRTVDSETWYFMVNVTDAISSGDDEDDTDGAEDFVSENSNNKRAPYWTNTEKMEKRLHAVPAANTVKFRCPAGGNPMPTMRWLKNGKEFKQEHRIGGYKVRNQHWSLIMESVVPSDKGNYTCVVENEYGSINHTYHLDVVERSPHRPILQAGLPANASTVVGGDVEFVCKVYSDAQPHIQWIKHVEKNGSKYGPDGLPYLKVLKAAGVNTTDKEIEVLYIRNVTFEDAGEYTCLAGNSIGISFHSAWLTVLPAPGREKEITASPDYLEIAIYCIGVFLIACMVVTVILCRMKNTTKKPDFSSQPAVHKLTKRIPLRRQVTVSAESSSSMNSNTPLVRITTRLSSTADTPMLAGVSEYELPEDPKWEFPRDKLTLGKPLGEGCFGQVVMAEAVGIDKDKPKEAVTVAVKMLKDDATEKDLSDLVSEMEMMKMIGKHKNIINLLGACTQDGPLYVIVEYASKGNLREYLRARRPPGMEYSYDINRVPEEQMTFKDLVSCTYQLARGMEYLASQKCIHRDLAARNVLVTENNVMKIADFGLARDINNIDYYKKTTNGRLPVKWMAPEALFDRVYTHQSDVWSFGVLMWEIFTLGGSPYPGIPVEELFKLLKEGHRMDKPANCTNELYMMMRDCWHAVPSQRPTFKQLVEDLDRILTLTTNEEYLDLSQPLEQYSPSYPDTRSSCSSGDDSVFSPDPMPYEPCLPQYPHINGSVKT
Procedure: as §1

MDA-453 = assay: WST test, inhibition of proliferation of MDA-453; assay type: cell-based; settings: 96 h; line MDA-453, tissue of origin Breast; four days of incubation, WST-1
Procedure: The inhibition of the proliferation of cell lines by certain compounds of the invention was tested. […] In the example, the lines used were derived from cancers of the uterus, central nervous system, colon, stomach, head and neck, lung, breast, pancreas, and kidney, as well as from lymphoma, myeloma, pleura, or from melanoma.
The WST test for measuring cell proliferation and viability (Roche Applied Science) is based on cleavage of a tetrazolium salt by the mitochondrial dehydrogenases in viable cells.
After four days of incubation of the compounds with the cell line, 14 μl of WST-1 reagent is added to each well and the plates are incubated for four hours at 37° in humid atmosphere at 5% CO2. The level of formazan formed is then determined by spectrophotometry at 450 nm whereas a reference is measured at 650 nm. A control with untreated cells is represented by six wells per plate and the group of treated cells is produced in triplicate for each of the concentrations measured.
The compounds are tested at five concentrations between 10 nM and 100 μM and two cytotoxic agents are used as controls: adriamycin and 5-fluorouracil.

panel of cell lines = assay: Inhibition of the proliferation of a panel of cell lines (WST test); assay type: cell-based; settings: lines of Table XI, four days of incubation
[1] = compound 10 μM, 10 μM ATP, read-out: % inhibition at 10 μMol
[2] = compound 10 μM, read-out: % inhibition at 10 μMol
[3] = compound 1 μM, ATP (200), read-out: % inhibition at 1 μMol
[4] = compound 1 μM, ATP (15), read-out: % inhibition at 1 μMol
[5] = compound 20 μM, 10 μM ATP, read-out: % inhibition at 20 μMol
[6] = compound 20 μM, read-out: % inhibition at 20 μMol

T1 sequence (P04049 306-648 Y340D/Y341D limits assumed): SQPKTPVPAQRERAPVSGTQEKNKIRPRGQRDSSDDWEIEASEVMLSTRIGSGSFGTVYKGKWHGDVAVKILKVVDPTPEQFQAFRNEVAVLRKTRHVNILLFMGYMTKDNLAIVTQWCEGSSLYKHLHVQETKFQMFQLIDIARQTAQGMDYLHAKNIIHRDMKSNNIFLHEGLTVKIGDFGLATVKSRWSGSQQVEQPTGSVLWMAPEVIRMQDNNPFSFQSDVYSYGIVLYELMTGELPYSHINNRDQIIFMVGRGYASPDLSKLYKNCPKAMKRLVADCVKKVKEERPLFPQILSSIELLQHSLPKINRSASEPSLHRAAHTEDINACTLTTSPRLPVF

inhibition at 10 µM (c-RAF (h); [1]): 79% | inhibition at 10 µM (CDK2/cyclinE (h); [2]): 12% | inhibition at 10 µM (IGF-1R (h); [2]): 0% | inhibition at 10 µM (Flt3 (h); [1]): 51% | inhibition at 10 µM (cKit (h); [1]): 45% | IC50 (RET): < 0.1 µM | inhibition at 10 µM (ROCK-II (h); [1]): 17% | inhibition at 10 µM (GSK3B (h); [1]): 22% | inhibition at 10 µM (Hck (h)): 91% | inhibition at 10 µM (FGFR2 (h); [2]): 91%
Structure (SMILES): CCOC(=O)c1c[nH]c2c(=O)[nH]c3ccc(S(=O)(=O)Nc4ccc(F)cc4)cc3c12 [Compound 12, 8-(4-Fluorophenylsulfamoyl)-4-oxo-4,5-dihydro-3H-pyrrolo[2,3-c]quinoline-1-ethyl carboxylate]

inhibition at 1 µM (c-RAF (h); compound 1 μM, ATP (45), read-out: % inhibition at 1 μMol): 3% | inhibition at 1 µM (Flt3 (h); [3]): 0% | inhibition at 1 µM (cKit (h); [3]): 4% | IC50 (RET): 0.1 to 1 µM | inhibition at 1 µM (ROCK-II (h); [4]): 5% | inhibition at 1 µM (GSK3B (h); [4]): 0%
Structure (SMILES): CCOC(=O)c1c[nH]c2c(=O)[nH]c3ccc(-c4cccc(S(C)(=O)=O)c4)cc3c12 [Compound 238, 8-(3-Methanesulfonyl-phenyl)-4-oxo-4,5-dihydro-3H-pyrrolo[2,3-c]quinoline-1-ethyl carboxylate]
IC50 (MDA-453): 7 µM | inhibition of proliferation of cell lines (in words) (panel of cell lines): inhibition of proliferation

inhibition at 20 µM (c-RAF (h); [5]): 17% | inhibition at 20 µM (CDK2/cyclinE (h); [6]): 97% | inhibition at 20 µM (IGF-1R (h); [6]): 42% | inhibition at 20 µM (Flt3 (h); [5]): 91% | inhibition at 20 µM (cKit (h); [5]): 20% | IC50 (RET): 1 to 10 µM | inhibition at 20 µM (ROCK-II (h); [5]): 8% | inhibition at 20 µM (FGFR2 (h); [6]): 82%
Structure (SMILES): CCOC(=O)c1c[nH]c2c(=O)[nH]c3ccccc3c12 [Compound 1, 4-Oxo-4,5-dihydro-3H-pyrrolo[2,3-c]quinoline-1-ethyl carboxylate]
